This is an account of results in the Deep4Chem optical property database.

Values joined by “and” are separate entries in the source; they are usually repeats but may differ in a detail not shown here. Equal entries are not always repeated.

The nature of the data set: solvent given as SMILES.

`CCCCOc1c(-c2ccc(N(c3ccccc3)c3ccccc3)cc2)cc2cc(-c3ccc(N(c4ccccc4)c4ccccc4)cc3)c(OCCCC)c3c4c(OCCCC)c(-c5ccc(N(c6ccccc6)c6ccccc6)cc5)cc5cc(-c6ccc(N(c7ccccc7)c7ccccc7)cc6)c(OCCCC)c(c1c23)c54` gave an emission maximum (in ClCCl) of 490 nm.

Regarding `COc1ccc(/C=C/c2nc(/C=C/c3ccc(N(C)C)cc3)cc(/C=C/c3ccc(N(C)C)cc3)n2)cc1`, the emission maximum is 522 nm (in C1CCOC1); 581 nm (in CC#N); 559 nm (in CC(C)=O); 450 nm (in CCCCCCC); 598 nm (in CS(C)=O); 480 nm (in Cc1ccccc1). Also, the emission maximum (in ClCCl) turned out to be 533 nm.

Turning to `COCCOCCOCCOc1ccc(OCCOCCOCCOC)c(C=O)c1`, the emission maximum by setting is: (in CC(C)(C)O) 444 nm; (in CC(C)CO) 453 nm; (in CC(C)O) 455 nm; (in CCCCO) 458 nm; (in CCCO) 459 nm; (in CCO) 462 nm. This compound also had an emission maximum (in CN(C)C=O) of 423 nm; an emission maximum (in CNC=O) of 458 nm; an emission maximum (in CO) of 468 nm; an emission maximum (in NC=O) of 463 nm; an emission maximum (in O) of 485 nm.

Regarding `N#C[Se]CCCCCOc1ccc2ccc(=O)oc2c1`, the emission maximum was 378 nm (in C1CCCCC1); 391 nm (in C1CCOC1); 386 nm (in C1COCCO1); 387 nm (in CC#N); 391 nm (in CCCCCCC); 386 nm (in CCO). Further, the emission maximum runs as follows: (in CN(C)C=O) 396 nm; (in CO) 391 nm; (in O) 397 nm; (in OCCO) 392 nm.

Turning to `CCCCCCCCOc1ccc(-c2c3c4n(c(-c5ccc(OCCCCCCCC)cc5)c3c3n2[B-](F)(F)[n+]2c(sc5ccccc52)N=3)[B-](F)(F)[n+]2c(sc3ccccc32)N=4)cc1`, the emission maximum (in ClC(Cl)Cl) is recorded as 676 nm.

For `N#Cc1cc2ccc(O)cc2oc1=O`, the emission maximum is, setting by setting: (in C1CCCCC1) 411 nm; (in C1CCOC1) 405 nm; (in CC#N) 402 nm; (in CCOC(C)=O) 406 nm; (in CS(C)=O) 401 nm; (in ClC(Cl)Cl) 408 nm. Under “in O”, this compound registered an emission maximum of 410 nm.

Where the note is “in CC#N”, `CN(C)c1ccc(-n2c(-c3ccncc3)nc3nccnc32)cc1` gave an emission maximum of 405 nm.

In the case of `CCN(CC)c1ccc2c(C)cc(=O)oc2c1`, the emission maximum is, setting by setting: (in C1CCCCC1) 395 nm; (in CC#N) 430 nm; (in CCCCCCCCO) 443 nm; (in CCCCCCO) 444 nm; (in CCCCO) 447 nm; (in CCCO) 452 nm. In addition, the emission maximum is 454 nm and 451 nm (in CCO); 416 nm (in CCOC(C)=O); 462 nm (in CO); 470 nm (in O); 463 nm (in OCC(O)CO).

`C=Cc1cc2ccc(OC(=O)c3ccccc3)cc2oc1=O` yielded an emission maximum (in CC#N) of 420 nm.

For `COCCOc1ccc(OCCOC)c(C=O)c1`, the emission maximum by setting is: (in CC(C)(C)O) 441 nm; (in CC(C)CO) 451 nm; (in CC(C)O) 453 nm; (in CCCCO) 457 nm; (in CCCO) 458 nm; (in CCO) 462 nm. The emission maximum is, setting by setting: (in CN(C)C=O) 425 nm; (in CNC=O) 459 nm; (in CO) 467 nm; (in NC=O) 464 nm; (in O) 483 nm.

In the case of `Cc1ccc(-c2cc(-c3ccccc3Cl)c3c(N)nc(N4CCCC4)c(C#N)c3n2)cc1`, the emission maximum is 526 nm (in CC#N); 522 nm (in CC(C)=O); 516 nm (in CC(C)O); 525 nm (in CO); 508 nm (in ClC(Cl)Cl); 514 nm (in ClCCl). Also, the emission maximum (in c1ccccc1) is given as 512 nm.

Turning to `C(=C\c1nc(-c2ccccc2)c2ccccn12)/c1nc(-c2ccccc2)c2ccccn12`, where the note is “in CC#N”, the emission maximum is 491 nm.

`CCCCCCn1c(=O)c2c3[nH]c4ccccc4oc3c3c(=O)n(CCCCCC)c(=O)c3c2c1=O` yielded an emission maximum (in ClCCl) of 560 nm.

`O=c1c2ccccc2nc2ccccn12` returned an emission maximum (in ClCCl) of 442 nm.

For the compound `CCOC(=O)c1sc2nc(-c3ccccc3)c(C)c(C#N)c2c1N`, the emission maximum by setting is: (in C1COCCO1) 554 nm; (in CC#N) 570 nm; (in CCO) 580 nm; (in CCOC(C)=O) 558 nm; (in ClC(Cl)Cl) 550 nm; (in c1ccccc1) 549 nm.

For the compound `COC(=O)CCC1=CC(C#Cc2cccs2)=[N+]2C1=Cc1c(CCC(=O)OC)cc(C#Cc3cccs3)n1[B-]2(F)F`, the emission maximum (in ClCCl) came to 681 nm.

Take `CC(C)(C)c1ccc2c(c1)c1cc(C(C)(C)C)ccc1n2-c1ccc(-c2ccc3c(c2)C2(c4cc(-c5ccc(-n6c7ccc(C(C)(C)C)cc7c7cc(C(C)(C)C)ccc76)cc5)ccc4-3)c3ccccc3S(=O)(=O)c3ccccc32)cc1`: the emission maximum is reported as 449 nm (in ClCCl) and 434 nm (in c1cc(-n2c3ccccc3c3ccccc32)cc(-n2c3ccccc3c3ccccc32)c1).

`Cc1cc2ccccc2c2c1c1ccccc1n2C(=O)OC(C)(C)C` returned an emission maximum (in ClCCl) of 355 nm.

Take `CCN(CC)c1ccc2c(c1)oc(=O)c1c(-c3ccccc3C(=O)O)c3ccc(=[N+](CC)CC)cc-3oc12`: the emission maximum is given as 637 nm (in CCO), 636 nm (in ClC(Cl)Cl) and 646 nm (in O).

`c1ccc2c(c1)-c1c(cc3ccc4cccc5ccc1c3c45)C21c2cc(-c3ccc4ccc5cccc6ccc3c4c56)ccc2-c2ccc(-c3ccc4ccc5cccc6ccc3c4c56)cc21` showed an emission maximum (in ClC(Cl)Cl) of 424 nm.

As for `O=C1OC(=O)c2ccc(N(c3ccccc3)c3c4ccccc4cc4ccccc34)c3cccc1c23`, the emission maximum amounted to 591 nm (in C1CCOC1), 514 nm (in CCCCCC), 608 nm (in ClCCl) and 560 nm (in c1ccccc1).

With `CSc1ccc2c(c1)N(CCCN1CCN(C)CN1C)c1ccccc1S2`, the emission maximum reads like this: (in CC#N) 455 nm; (in CO) 453 nm; (in O) 466 nm.

As for `COc1ccc(/C=C(\C)c2nc3ccccc3o2)cc1`, the emission maximum stood at 380 nm (in C1CCCCC1) and 400 nm (in CO).

With `c1ccc2c(c1)[nH]c1cccnc12`, the emission maximum stood at 341 nm (in C1CCCCC1); 352 nm (in C1CCOC1); 367 nm (in C1COCCO1); 385 nm (in CCO); 371 nm (in CN(C)C=O); 350 nm (in Cc1ccccc1). The emission maximum by setting is: (in ClC(Cl)Cl) 369 nm; (in Clc1ccccc1) 364 nm.

Turning to `CCN(CC)c1ccc2cc(-c3cc(SC)c(C#N)c(=O)o3)c(=O)oc2c1`, the emission maximum (in C1CCOC1) stood at 558 nm; the emission maximum (in CC#N) is 578 nm; the emission maximum (in CC(C)=O) was found to be 573 nm; the emission maximum (in CCOC(C)=O) stood at 554 nm; the emission maximum (in CN(C)C=O) is recorded as 585 nm; the emission maximum (in CO) amounted to 582 nm. In addition, the emission maximum (in CS(C)=O) is 593 nm, the emission maximum (in Cc1ccccc1) turned out to be 533 nm, the emission maximum (in ClC(Cl)Cl) is 547 nm and the emission maximum (in ClCCl) stood at 560 nm.

`COc1ccc(/C=C/C2=CC(/C=C/c3ccc(OC)cc3)=[O+][B-](OC(C)=O)(OC(C)=O)O2)cc1` yielded an emission maximum (in C1CCOC1) of 518 nm; an emission maximum (in CC#N) of 541 nm; an emission maximum (in CC(C)=O) of 531 nm; an emission maximum (in CS(C)=O) of 548 nm; an emission maximum (in Cc1ccccc1) of 510 nm; an emission maximum (in ClC(Cl)Cl) of 529 nm. In addition, the emission maximum (in ClCCl) is on record as 535 nm.

As to `COc1ccc2c(c1)-c1ccccc1C2=O`, the emission maximum was 472 nm (in C1CCCCC1), 510 nm (in CC#N) and 549 nm (in CCO).

Turning to `N#Cc1nc(N(Cc2ccccc2I)Cc2ccccc2I)c(C#N)nc1N(Cc1ccccc1I)Cc1ccccc1I`, the emission maximum (in ClC(Cl)Cl) is reported as 567 nm.

Under “in Cc1ccccc1”, `c1ccc2c(c1)Sc1ccccc1N2c1ccc2c(c1)C1(CCCC1)c1cc(N3c4ccccc4Sc4ccccc43)ccc1-2` displayed an emission maximum of 491 nm.

`c1ccc(C2=C(c3ccccc3)c3cccc4c3c(cc3nc5cc(-c6ccc(N(c7ccccc7)c7ccccc7)cc6)c(-c6ccc(N(c7ccccc7)c7ccccc7)cc6)cc5nc34)O2)cc1` showed an emission maximum (in ClCCl) of 568 nm.

The compound `CCn1c(-c2ccc(OC)cc2)c(-c2ccc3ccccc3c2)c(-c2ccc3ccccc3c2)c1-c1ccc(OC)cc1` gave an emission maximum (in CCOC(C)=O) of 404 nm.

Compound `c1ccc2c3c(ccc2c1)-c1cccc2c1c-3cc1ccccc12` displayed an emission maximum (in CCCCCCC) of 482 nm.

Take `Nc1ccc(/C=C/c2ccc3ccccc3c2)cc1`: the emission maximum by setting is: (in CC#N) 450 nm; (in CCCCCC) 392 nm.

Turning to `CCN1/C(=C\c2c(-c3ccc(N(C)C)cc3)c(=O)c2=O)C=Cc2ccccc21`, the emission maximum was 427 nm (in C1CCCCC1), 434 nm (in Cc1ccccc1) and 588 nm (in ClCCl).

Consider `CC1(C)OB(c2cc3ccc4cccc5ccc(c2)c3c45)OC1(C)C`, for which the emission maximum (in Cc1ccccc1) worked out at 386 nm.

As to `Cc1ccc(C)n1-c1ccc(N(C)C)cc1`, the emission maximum turned out to be 360 nm (in CC#N) and 347 nm (in CCCCCC).

In the case of `CCCCCC(=O)c1cccc2sc3c(c12)P(=O)(c1ccccc1)c1ccccc1-3` (stereo unspecified), the emission maximum (in ClCCl) turned out to be 427 nm.
